# Measurements published in patent US6737383B1, “Herbicidal oxadiazolidines” (priority 1999, dated 2004).
# What was measured:
# [1] = system: Green foxtail; experiment: Test D green foxtail; type: in vivo; conditions: Rate 250 g/ha; Postemergence; 0 to 100 scale
# [2] = system: common ragweed; experiment: Test D common ragweed; type: in vivo, Ambrosia elatior; conditions: Postemergence, 0 to 100 scale
# [3] = system: pitted morningglory; experiment: Test D pitted morningglory; type: in vivo, Ipomoea lacunosa; conditions: Postemergence, 0 to 100 scale
# [4] = system: itchgrass; experiment: Test D itchgrass; type: in vivo, Rottboellia exaltata; conditions: Postemergence, 0 to 100 scale
# [5] = system: tall mallow; experiment: Test D tall mallow; type: in vivo, Malva sylvestris; conditions: Postemergence, 0 to 100 scale
# [6] = Rate 16 g/ha, 0 no injury, 100 complete control
# [7] = Rate 32 g/ha, 0 no injury, 100 complete control
# [8] = Rate 64 g/ha, 0 no injury, 100 complete control
# [9] = Rate 125 g/ha, 0 no injury, 100 complete control
smiles,measurement,setting,value
CC(C)N(C(=O)n1oc(=O)n(C2CCC2)c1=O)c1ccc(Cl)cc1 [Compound 349],"Plant response rating, Green foxtail",[1],100
same,"Plant response rating, C. ragweed",[2]; [6],0
same,"Plant response rating, C. ragweed",[2]; [7],0
same,"Plant response rating, C. ragweed",[2]; [8],0
same,"Plant response rating, C. ragweed",[2]; [9],0
same,"Plant response rating, C. ragweed",[2]; Rate 250 g/ha,20
same,"Plant response rating, P. morninglory",[3]; [6],0
same,"Plant response rating, P. morninglory",[3]; [7],0
same,"Plant response rating, P. morninglory",[3]; [8],0
same,"Plant response rating, P. morninglory",[3]; [9],0
same,"Plant response rating, P. morninglory",[3]; Rate 250 g/ha,0
same,"Plant response rating, Itchgrass",[4]; [6],0
same,"Plant response rating, Itchgrass",[4]; [7],0
same,"Plant response rating, Itchgrass",[4]; [8],0
same,"Plant response rating, Itchgrass",[4]; [9],0
same,"Plant response rating, Itchgrass",[4]; Rate 250 g/ha,0
same,"Plant response rating, Tall Mallow",[5]; [6],0
same,"Plant response rating, Tall Mallow",[5]; [7],0
same,Tall Mallow plant response rating,[5]; [8],0
same,Tall Mallow plant response rating,[5]; [9],0
same,"Plant response rating, Tall Mallow",[5]; Rate 250 g/ha,0
